We go through 17 compounds from patent US20220033407A1, “N-(pyridin-2-ylsulfonyl)cyclopropanecarboxamide Derivatives and their Use in the Treatment of Disease” (NOVARTIS AG, priority 2018, published 2022).

SMILES strings stand for the structures.

In the test the target is T1, delF508-CFTR-HRP (Homo sapiens, UniProt P13569, DEL508-508).
T1 construct: expressed in transfected cells
As to the kind of experiment: Measurement of delF508-CFTR-HRP surface expression in CFBE41o- cells (HRP luminescence).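 As to DelF508-CFTR-HRP Amax %: percent efficacy relative to a reference CFTR corrector compound.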 In kind it is cell-based. The note with it: for Emax: CFBE41o-, read-out: DelF508-CFTR-HRP Amax %; for EC50: mean of at least two replicates. An excerpt: Measurement of delF508-CFTR-HRP Surface Expression in CFBE41o-Cells
This assay quantifies the cell surface expressions of the mutant CFTR channel using an extracellular HRP tag.
A cellular assay was developed to measure surface expression of horseradish peroxidase (HRP) tagged delF508-CFTR in the human bronchial epithelial immortalized CFBE41o-cell line (Phuan, P. W., et al, (2014) Molecular Pharmacology 86:42-51). Specifically, the HRP sequence was inserted into the fourth extracellular loop of delF508-CFTR and stably expressed in CFBE41o-cells. Cells were seeded in 384 well plate at a density of 5000 cells/well and incubated at 37° C. for 12 to 24 hours in medium (Gibco MEM #11095, 10% FBS, 10 mM HEPES, […], 200 μg/mL G418, 3 μg/mL Puromycin). The delF508-CFTR-HRP expression was induced with 500 ng/mL doxycycline (Sigma D-9891, dissolved in H2O and sterile filtered) in medium and the cells were incubated at 37° C. for 48 h. Old medium was removed and fresh medium was added containing 500 ng/mL doxycycline and unknown test compound at required test concentration in DMSO, not exceeding 0.5% final DMSO concentration. The highest concentration tested was 10 μM with a 10-point concentration response curve using a 3-fold dilution. After addition of compounds, the cells were incubated for 24 h at 37° C. On the final day, cells were washed four times in PBS containing 1 mM MgCl2 and 0.1 mM CaCl2. HRP-Substrate (SuperSignal ELISA Pico, Fisher #37069) 20 μl/well was added and the luminescence signal was determined (Viewlux, Perkin Elmer). Light was emitted upon addition of exogenous HRP-Substrate only when delF508-CFTR-HRP reached the cell surface and the HRP tag was accessible to the HRP-Substrate (note: HRP-Substrate cannot cross the lipid bilayer to reach delF508-CFTR-HRP misfolded within the cell).
The median activity for the lowest concentration of the compounds on each assay plate was calculated and this value was used to normalize the signal for each well on the respective plate. Three replicates at each concentrations for every compound were run to determine one EC50. The median value was determined and used to calculate compound activities as described below. Effective half maximal values (EC50) were calculated for each compound by performing logistic regression on measured dose-response data points using the equation: […]
where “Y” is the observed activity, “Bottom” is the lowest observed value, “Top” is the highest observed value, and the “Hill coefficient” gives the largest absolute value of the slope. The curve fitting is carried out by a curve fitting program implemented at GNF using Matlab (Mathworks). The dose response curves also were used to calculate Fold Change (FC) using the equation: […]
Compound efficacy relative to the reference compound 3-(6-(1-(2,2-difluorobenzo[d][1,3]dioxol-5-yl)cyclopropane-1-carboxamido)-3-methylpyridin-2-yl)benzoic acid was determined using the following formula: […]

T1 sequence (P13569 with tags, fused parts or gaps DEL508-508): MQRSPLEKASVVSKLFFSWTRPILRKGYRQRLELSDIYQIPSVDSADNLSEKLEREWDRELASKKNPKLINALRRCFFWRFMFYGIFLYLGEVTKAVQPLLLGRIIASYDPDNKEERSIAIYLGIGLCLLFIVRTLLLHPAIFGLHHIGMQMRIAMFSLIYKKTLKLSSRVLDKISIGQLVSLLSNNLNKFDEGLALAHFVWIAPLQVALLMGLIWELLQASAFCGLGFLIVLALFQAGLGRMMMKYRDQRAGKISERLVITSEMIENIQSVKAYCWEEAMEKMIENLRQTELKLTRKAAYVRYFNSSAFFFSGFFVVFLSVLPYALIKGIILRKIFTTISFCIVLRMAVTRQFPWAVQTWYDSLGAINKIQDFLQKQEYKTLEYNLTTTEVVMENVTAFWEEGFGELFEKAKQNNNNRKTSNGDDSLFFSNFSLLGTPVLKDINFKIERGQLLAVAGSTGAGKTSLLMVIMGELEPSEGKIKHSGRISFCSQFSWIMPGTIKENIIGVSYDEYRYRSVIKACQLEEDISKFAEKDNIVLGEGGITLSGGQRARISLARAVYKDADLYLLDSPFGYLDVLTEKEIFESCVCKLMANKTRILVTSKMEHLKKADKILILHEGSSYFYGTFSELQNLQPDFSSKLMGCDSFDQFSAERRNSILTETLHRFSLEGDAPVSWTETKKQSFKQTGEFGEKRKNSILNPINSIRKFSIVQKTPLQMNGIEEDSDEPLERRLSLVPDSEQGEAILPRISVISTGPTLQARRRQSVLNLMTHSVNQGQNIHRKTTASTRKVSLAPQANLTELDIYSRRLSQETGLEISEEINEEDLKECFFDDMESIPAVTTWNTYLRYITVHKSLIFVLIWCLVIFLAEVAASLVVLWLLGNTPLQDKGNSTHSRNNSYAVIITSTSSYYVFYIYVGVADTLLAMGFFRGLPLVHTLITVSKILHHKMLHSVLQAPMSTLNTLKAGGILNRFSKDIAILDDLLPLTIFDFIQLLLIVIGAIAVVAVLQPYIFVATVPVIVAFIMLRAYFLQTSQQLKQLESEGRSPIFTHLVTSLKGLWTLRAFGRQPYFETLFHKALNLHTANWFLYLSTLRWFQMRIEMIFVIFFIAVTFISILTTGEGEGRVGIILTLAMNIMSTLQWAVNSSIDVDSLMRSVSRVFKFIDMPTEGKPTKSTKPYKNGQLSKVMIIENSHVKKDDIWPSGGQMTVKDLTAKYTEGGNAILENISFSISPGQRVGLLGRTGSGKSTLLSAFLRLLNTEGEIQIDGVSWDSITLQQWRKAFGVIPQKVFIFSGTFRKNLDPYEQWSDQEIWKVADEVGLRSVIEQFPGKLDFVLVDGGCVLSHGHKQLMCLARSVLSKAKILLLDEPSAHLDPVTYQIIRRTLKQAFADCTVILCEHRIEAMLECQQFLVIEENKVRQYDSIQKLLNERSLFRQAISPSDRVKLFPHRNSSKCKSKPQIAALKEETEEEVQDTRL

For the compound `CC1(C)CN(c2ccc(Cl)cc2OC2(C(=O)NS(=O)(=O)c3cccc(N4CC[C@H](O)C4)n3)CC2)CC2(CCCC2)O1` [Example 9-33, (S)-1-(5-Chloro-2-(7,7-dimethyl-6-oxa-9-azaspiro[4.5]decan-9-yl)phenoxy)-N-((6-(3-hydroxypyrrolidin-1-yl)pyridin-2-yl)sulfonyl)cyclopropanecarboxamide], the Emax came to 265% and the EC50 amounted to 2.27 µM.
Consider `CC1(C)CCN(c2ccc(Cl)cc2OC2(C(=O)NS(=O)(=O)c3cccc(N)n3)CC2)CC1` [Example 9-45, N-((6-Aminopyridin-2-yl)sulfonyl)-1-(5-chloro-2-(4,4-dimethylpiperidin-1-yl)phenoxy)cyclopropane-1-carboxamide], for which the Emax is 189% and the EC50 was determined as 2.17 µM.
`Cc1ccc(C2CCC(C)(C)OC2)c(OC2(C(=O)NS(=O)(=O)c3cccc(N4CCC(O)(C(F)(F)F)CC4)n3)CC2)c1` (single isomer, unassigned) [Example 11-2-1, 1-(2-(6,6-Dimethyltetrahydro-2H-pyran-3-yl)-5-methylphenoxy)-N-((6-(4-hydroxy-4-(trifluoromethyl)piperidin-1-yl)pyridin-2-yl)sulfonyl)cyclopropane-1-carboxamide]: the “DelF508-CFTR-HRP Amax %” value worked out at 473.8% and the EC50 came out at 1.86 µM.
As to `CC1(C)CCN(c2ccc(Cl)cc2OC2(C(=O)NS(=O)(=O)c3cccc(N4CCC(c5ccccn5)CC4)n3)CC2)CC1` [Example 10-3, 1-(5-chloro-2-(4,4-dimethylpiperidin-1-yl)phenoxy)-N-((6-(4-(pyridin-2-yl)piperidin-1-yl)pyridin-2-yl)sulfonyl)cyclopropanecarboxamide], the Emax stood at 493% and the concentration giving a half-maximal response (EC50) is 0.6 µM.
Consider `O=C(NS(=O)(=O)c1cccc(N2CC[C@H](O)C2)n1)C1(Oc2cc(Cl)ccc2N2CCC(O)(c3ccccn3)CC2)CC1` [Example 9-37, (S)-1-(5-Chloro-2-(4-hydroxy-4-(pyridin-2-yl)piperidin-1-yl)phenoxy)-N-((6-(3-hydroxypyrrolidin-1-yl)pyridin-2-yl)sulfonyl)cyclopropanecarboxamide], for which the Emax is 12.6% and the EC50 was 0.08 µM.
`O=C(NS(=O)(=O)c1cccc(N2CC[C@H](O)C2)n1)C1(Oc2cc(Cl)ccc2-c2ccc3occc3c2)CC1` [Example 5-12, (S)-1-(2-(Benzofuran-5-yl)-5-chlorophenoxy)-N-((6-(3-hydroxypyrrolidin-1-yl)pyridin-2-yl)sulfonyl)cyclopropane-1-carboxamide]: the Emax is 204% and the EC50 was determined as 2.47 µM.
The like results for `O=C(NS(=O)(=O)c1cccc(N2C[C@H]3CC[C@@H](O)[C@H]3C2)n1)C1(Oc2cc(Cl)ccc2N2CC3(CCCCC3)C2)CC1` [Example 9-3, 1-(5-chloro-2-(2-azaspiro[3.5]nonan-2-yl)phenoxy)-N-((6-((3aR,4R,6aS)-4-hydroxyhexahydrocyclopenta[c]pyrrol-2(1H)-yl)pyridin-2-yl)sulfonyl)cyclopropane-1-carboxamide] were, in that order, 588% and 1.35 µM.
On to `Cc1ccc(C2CCC3(CCC3)OC2)c(OC2(C(=O)NS(=O)(=O)c3cccc(N4CCC(C)(O)CC4)n3)CC2)c1` (single isomer, unassigned) [Example 11-4-2, N-((6-(4-hydroxy-4-methylpiperidin-1-yl)pyridin-2-yl)sulfonyl)-1-(5-methyl-2-(5-oxaspiro[3.5]nonan-7-yl)phenoxy)cyclopropane-1-carboxamide], for which the “DelF508-CFTR-HRP Amax %” value was determined as 242.9% and the midpoint of the response, the EC50, lay at 2.65 µM.
Take `O=C(NS(=O)(=O)c1cccc(N2CC[C@H](O)C2)n1)C1(Oc2cc(Cl)ccc2-c2ccc3ccoc3c2)CC1` [Example 5-4, (S)-1-(2-(Benzofuran-6-yl)-5-chlorophenoxy)-N-((6-(3-hydroxypyrrolidin-1-yl)pyridin-2-yl)sulfonyl)cyclopropane-1-carboxamide]: the Emax was 376% and the 50% effective concentration (EC50) was found to be 2.06 µM.
For `C=C(c1ccc(F)cc1OC1(C(=O)NS(=O)(=O)c2cccc(N3CCN(c4ccccc4)CC3)n2)CC1)C(F)(F)F` [Example 4-18, 1-(5-Fluoro-2-(3,3,3-trifluoroprop-1-en-2-yl)phenoxy)-N-((6-(4-phenylpiperazin-1-yl)pyridin-2-yl)sulfonyl)cyclopropane-1-carboxamide], the Emax worked out at 160% and the 50% effective concentration (EC50) worked out at 3.39 µM.
In the case of `Cc1ccc(N2CCC(C)(C)CC2)c(OC2(C(=O)NS(=O)(=O)c3cccc(N)n3)CC2)c1` [Example 9-44, N-((6-Aminopyridin-2-yl)sulfonyl)-1-(2-(4,4-dimethylpiperidin-1-yl)-5-methylphenoxy)cyclopropane-1-carboxamide], the Emax turned out to be 234% and the concentration for a half-maximal effect (EC50) is 1.55 µM.
The like results for `O=C(NS(=O)(=O)c1cccc(N2CCC(O)(C(F)(F)F)CC2)n1)C1(Oc2cc(Cl)ccc2N2CC3(CCCCC3)C2)CC1` [Example 9-2, 1-(5-chloro-2-(2-azaspiro[3.5]nonan-2-yl)phenoxy)-N-((6-(4-hydroxy-4-(trifluoromethyl)piperidin-1-yl)pyridin-2-yl)sulfonyl)cyclopropanecarboxamide] were, in that order, 366% and 0.6 µM.
Turning to `O=C(NS(=O)(=O)c1cccc(N2CCC3(CCCO3)CC2)n1)C1(Oc2cc(Cl)ccc2C2CC3(CCC3)C2)CC1` [Example 7-6, N-((6-(1-oxa-8-azaspiro[4.5]decan-8-yl)pyridin-2-yl)sulfonyl)-1-(5-chloro-2-(spiro[3.3]heptan-2-yl)phenoxy)cyclopropanecarboxamide], the Emax was found to be 408% and a half-maximal response (EC50) required 0.85 µM.
The like results for `CC(C)(C)OC1CCN(c2ccc(Cl)cc2OC2(C(=O)NS(=O)(=O)c3cccc(N4CC[C@H](O)C4)n3)CC2)C1` (stereo partly drawn) [Example 9-32, 1-(2-(3-(Tert-butoxy)pyrrolidin-1-yl)-5-chlorophenoxy)-N-((6-((S)-3-hydroxypyrrolidin-1-yl)pyridin-2-yl)sulfonyl)cyclopropanecarboxamide] were, in that order, 485% and 1.18 µM.
As to `CC1(NC(=O)OC(C)(C)C)CCN(c2cccc(S(=O)(=O)NC(=O)C3(Oc4cc(Cl)ccc4C4CC5(CCC5)C4)CC3)n2)CC1` [Example 7-7, Tert-butyl (1-(6-(N-(1-(5-chloro-2-(spiro[3.3]heptan-2-yl)phenoxy)cyclopropanecarbonyl)sulfamoyl)pyridin-2-yl)-4-methylpiperidin-4-yl)carbamate], the Emax is 357% and a half-maximal response (EC50) required 0.59 µM.
In the case of `CC1(O)CCCN(c2cccc(S(=O)(=O)NC(=O)C3(Oc4cc(Cl)ccc4C4CC5(CCC5)C4)CC3)n2)C1` (single isomer, unassigned) [Example 7-8-1, 1-(5-chloro-2-(spiro[3.3]heptan-2-yl)phenoxy)-N-((6-(3-hydroxy-3-methylpiperidin-1-yl)pyridin-2-yl)sulfonyl)cyclopropanecarboxamide], the “DelF508-CFTR-HRP Amax %” value came to 535.5% and a half-maximal effect (EC50) was put at 1 µM.
On to `Cc1ccc(C2CC(F)(F)C2)c(OC2(C(=O)NS(=O)(=O)c3cccc(N4CC(C)(O)C4)n3)CC2)c1` [Example 4-3, 1-(2-(3,3-Difluorocyclobutyl)-5-methylphenoxy)-N-((6-(3-hydroxy-3-methylazetidin-1-yl)pyridin-2-yl)sulfonyl)cyclopropanecarboxamide], for which the Emax worked out at 158% and the EC50 is 4.52 µM.

As a reminder, the EC50 is the concentration that produces a half-maximal response. Read a high EC50 as lower potency in that assay.
